In paper PMC7367873, “Dissecting the sequence determinants for dephosphorylation by the catalytic subunits of phosphatases PP1 and PP2A” (Nature Communications, 2020):

Experiments:
GFP-14-3-3β = GFP-14-3-3β co-IP with LC-MS/MS, untreated GFP-14-3-3β versus GFP control (14-3-3 interactome); format: binding, human
[1] = system: GFP-14-3-3β and its binding proteins; experiment: GFP-14-3-3β co-IP with LC-MS/MS label-free quantification, untreated versus PP1c-treated; design: species or system human
[2] = log2 difference, pairwise comparison untreated vs GFP, label-free quantification, 3 replicates each
[3] = log2 difference, pairwise comparison PP1 vs untreated, label-free quantification, 3 replicates each
[4] = pairwise comparison untreated GFP-14-3-3β vs GFP, student's t-test, 3 replicates each, LC-MS/MS label-free quantification
[5] = pairwise comparison PP1 vs untreated, student's t-test, 3 replicates each, LC-MS/MS label-free quantification
[6] = untreated vs GFP, label-free quantification
[7] = PP1 vs untreated, label-free quantification
[8] = untreated vs GFP, LFQ intensities, 3 replicates each
[9] = PP1 vs untreated, LFQ intensities, 3 replicates each
[10] = untreated vs GFP, LFQ intensities, replicates 1-3
[11] = PP1 vs untreated, LFQ intensities, replicates 1-3
[12] = pairwise comparison untreated vs GFP
[13] = pairwise comparison PP1 vs untreated
[14] = GFP-14-3-3β co-IP LC-MS/MS, untreated vs GFP, student's t-test, label-free quantification, 3 replicates each
[15] = GFP-14-3-3β co-IP LC-MS/MS, PP1 vs untreated, student's t-test, label-free quantification, 3 replicates each

Substance: GEMIN5
- Difference (log2), untreated vs GFP (GFP-14-3-3β; [2]): -0.2087
- Difference (log2), PP1 vs untreated [1, 3]: 1.609

Substance: SHROOM3
- Difference (log2), untreated vs GFP (GFP-14-3-3β; [4]): 4.814 log2
- Difference (log2), PP1 vs untreated [1, 5]: -2.387 log2

Substance: MYO5C
- Difference (log2), untreated vs GFP (GFP-14-3-3β; [6]): -0.7461 log2
- Difference (log2), PP1 vs untreated [1, 7]: 0.9874 log2

Substance: WDR62
- Difference (log2), untreated vs GFP (GFP-14-3-3β; [4]): 4.129 log2
- Difference (log2), PP1 vs untreated [1, 5]: -3.602 log2

Substance: TTC28
- Difference (log2), untreated vs GFP (GFP-14-3-3β; [4]): 4.184 log2
- Difference (log2), PP1 vs untreated [1, 5]: -4.888 log2

Substance: DYNC1H1
- Difference (log2), untreated vs GFP (GFP-14-3-3β; [6]): 3.605 log2
- Difference (log2), PP1 vs untreated [1, 7]: 0.7684 log2

Substance: ASCC3
- Difference (log2), untreated vs GFP (GFP-14-3-3β; [8]): -0.1721 log2
- Difference (log2), PP1 vs untreated [1, 9]: 0.6228 log2

Substance: PFKP
- Difference (log2), untreated vs GFP (GFP-14-3-3β; [2]): -0.1859
- Difference (log2), PP1 vs untreated [1, 3]: 1.388

Substance: RACGAP1
- Difference (log2), untreated vs GFP (GFP-14-3-3β; [4]): 6.129 log2
- Difference (log2), PP1 vs untreated [1, 5]: -3.139 log2

Substance: SSRP1
- Difference (log2), untreated vs GFP (GFP-14-3-3β; [6]): 1.339 log2
- Difference (log2), PP1 vs untreated [1, 7]: 0.7419 log2

Substance: MYO18A
- Difference (log2), untreated vs GFP (GFP-14-3-3β; [4]): 2.435 log2
- Difference (log2), PP1 vs untreated [1, 5]: -3.467 log2

Substance: SVIL
- Difference (log2), untreated vs GFP (GFP-14-3-3β; [6]): -1.069 log2
- Difference (log2), PP1 vs untreated [1, 7]: 0.892 log2

Substance: MYO5A
- Difference (log2), untreated vs GFP (GFP-14-3-3β; [2]): 0.8351
- Difference (log2), PP1 vs untreated [1, 3]: 1.396

Substance: YWHAQ
- Difference (log2), untreated vs GFP (GFP-14-3-3β; [10]): 7.871 log2
- Difference (log2), PP1 vs untreated [1, 11]: -1.354 log2

Substance: GNG12
- Difference (log2), untreated vs GFP (GFP-14-3-3β; [10]): -0.9148 log2
- Difference (log2), PP1 vs untreated [1, 11]: -1.974 log2

Substance: SFN
- Difference (GFP-14-3-3β; UntrtedvsGFP, Perseus raw output, LFQ intensity difference): 10.1517
- Difference (log2), untreated vs GFP (GFP-14-3-3β; [4]): 10.1517 log2
- Difference (log2), PP1 vs untreated [1, 5]: -4.908 log2

Substance: ITPR3
- Difference (log2), untreated vs GFP (GFP-14-3-3β; [12]): -0.007222 log2
- Difference (log2), PP1 vs untreated [1, 13]: 0.1762 log2

Substance: GCN1L1
- Difference (log2), untreated vs GFP (GFP-14-3-3β; [8]): 0.08 log2
- Difference (log2), PP1 vs untreated [1, 9]: 0.3397 log2

Substance: TPM4
- Difference (log2), untreated vs GFP (GFP-14-3-3β; [4]): 0.1774 log2
- Difference (log2), PP1 vs untreated [1, 5]: -3.308 log2

Substance: HNRNPAB
- Difference (log2), untreated vs GFP (GFP-14-3-3β; [8]): 0.1502 log2
- Difference (log2), PP1 vs untreated [1, 9]: 0.4916 log2

Substance: PKM
- Difference (log2), untreated vs GFP (GFP-14-3-3β; [10]): 0.471 log2
- Difference (log2), PP1 vs untreated [1, 11]: -1.659 log2

Substance: LARP4
- Difference (log2), untreated vs GFP (GFP-14-3-3β; [6]): -0.1959 log2
- Difference (log2), PP1 vs untreated [1, 7]: 0.983 log2

Substance: PHB2
- Difference (log2), untreated vs GFP (GFP-14-3-3β; [6]): 1.117 log2
- Difference (log2), PP1 vs untreated [1, 7]: 1.222 log2

Substance: HSPA9
- Difference (log2), untreated vs GFP (GFP-14-3-3β; [10]): -0.4978 log2
- Difference (log2), PP1 vs untreated [1, 11]: -1.091 log2

Substance: NPM1
- Difference (log2), untreated vs GFP (GFP-14-3-3β; [12]): 0.2613 log2
- Difference (log2), PP1 vs untreated [1, 13]: 0.1234 log2

Substance: YWHAE
- Difference (log2), untreated vs GFP (GFP-14-3-3β; [10]): 6.648 log2
- Difference (log2), PP1 vs untreated [1, 11]: -1.3 log2

Substance: CLTC
- Difference (log2), untreated vs GFP (GFP-14-3-3β; [14]): 0.0549 log2
- Difference (log2), PP1 vs untreated [1, 15]: -0.2648 log2

Substance: TNKS1BP1
- Difference (log2), untreated vs GFP (GFP-14-3-3β; [10]): 1.91 log2
- Difference (log2), PP1 vs untreated [1, 11]: -1.162 log2

Substance: DDX21
- Difference (log2), untreated vs GFP (GFP-14-3-3β; [14]): 2.481 log2
- Difference (log2), PP1 vs untreated [1, 15]: -0.7087 log2

Substance: VPS13D
- Difference (log2), untreated vs GFP (GFP-14-3-3β; [4]): 3.223 log2
- Difference (log2), PP1 vs untreated [1, 5]: -2.609 log2

Substance: PIK3C2B
- Difference (log2), untreated vs GFP (GFP-14-3-3β; [4]): 5.48 log2
- Difference (log2), PP1 vs untreated [1, 5]: -3.205 log2

Substance: MYO5B
- Difference (log2), untreated vs GFP (GFP-14-3-3β; [6]): -1.223 log2
- Difference (log2), PP1 vs untreated [1, 7]: 1.198 log2

Substance: HSPB1
- Difference (log2), untreated vs GFP (GFP-14-3-3β; [14]): 0.3674 log2
- Difference (log2), PP1 vs untreated [1, 15]: -0.1455 log2

Substance: CEP170
- Difference (log2), untreated vs GFP (GFP-14-3-3β; [8]): 2.101 log2
- Difference (log2), PP1 vs untreated [1, 9]: 0.4617 log2

Substance: RPA3
- Difference (log2), untreated vs GFP (GFP-14-3-3β; [10]): -0.7925 log2
- Difference (log2), PP1 vs untreated [1, 11]: -1.739 log2

Substance: SPTBN1
- Difference (log2), untreated vs GFP (GFP-14-3-3β; [10]): 0.3641 log2
- Difference (log2), PP1 vs untreated [1, 11]: -1.61 log2

Substance: FLNA
- Difference (log2), untreated vs GFP (GFP-14-3-3β; [4]): -0.8027 log2
- Difference (log2), PP1 vs untreated [1, 5]: -2.217 log2

Substance: HSPA8
- Difference (log2), untreated vs GFP (GFP-14-3-3β; [14]): -0.3706 log2
- Difference (log2), PP1 vs untreated [1, 15]: -0.3347 log2

Substance: CLPX
- Difference (log2), untreated vs GFP (GFP-14-3-3β; [6]): 0.9407 log2
- Difference (log2), PP1 vs untreated [1, 7]: 1.1943 log2

Substance: ILF2
- Difference (log2), untreated vs GFP (GFP-14-3-3β; [12]): 3.657 log2
- Difference (log2), PP1 vs untreated [1, 13]: -0.07574 log2

Substance: PRKDC
- Difference (log2), untreated vs GFP (GFP-14-3-3β; [12]): -0.4154 log2
- Difference (log2), PP1 vs untreated [1, 13]: 0.07826 log2

Substance: GAPDH
- Difference (log2), untreated vs GFP (GFP-14-3-3β; [4]): 0.2696 log2
- Difference (log2), PP1 vs untreated [1, 5]: -4.245 log2

Substance: FASN
- Difference (log2), untreated vs GFP (GFP-14-3-3β; [8]): 1.462 log2
- Difference (log2), PP1 vs untreated [1, 9]: 0.3561 log2

Substance: LANCL1
- Difference (log2), untreated vs GFP (GFP-14-3-3β; [10]): -0.5316 log2
- Difference (log2), PP1 vs untreated [1, 11]: -1.493 log2

Substance: ARHGEF5
- Difference (log2), untreated vs GFP (GFP-14-3-3β; [10]): 3.791 log2
- Difference (log2), PP1 vs untreated [1, 11]: -1.778 log2

Substance: HNRNPU
- Difference (log2), untreated vs GFP (GFP-14-3-3β; [14]): 0.9402 log2
- Difference (log2), PP1 vs untreated [1, 15]: -0.3998 log2

Substance: DOCK11
- Difference (log2), untreated vs GFP (GFP-14-3-3β; [10]): 2.579 log2
- Difference (log2), PP1 vs untreated [1, 11]: -1.861 log2

Substance: SRGAP2
- Difference (log2), untreated vs GFP (GFP-14-3-3β; [4]): 5.241 log2
- Difference (log2), PP1 vs untreated [1, 5]: -5.683 log2

Substance: FXR1
- Difference (log2), untreated vs GFP (GFP-14-3-3β; [2]): -1.238
- Difference (log2), PP1 vs untreated [1, 3]: 2.4595

Substance: LGALS1
- Difference (log2), untreated vs GFP (GFP-14-3-3β; [8]): -0.7235 log2
- Difference (log2), PP1 vs untreated [1, 9]: 0.4051 log2

Substance: ATP5B
- Difference (log2), untreated vs GFP (GFP-14-3-3β; [2]): -0.3021
- Difference (log2), PP1 vs untreated [1, 3]: 1.371

Substance: LARS
- Difference (log2), untreated vs GFP (GFP-14-3-3β; [12]): -0.7263 log2
- Difference (log2), PP1 vs untreated [1, 13]: 0.05859 log2

Substance: MAT2A
- Difference (log2), untreated vs GFP (GFP-14-3-3β; [4]): 0.8108 log2
- Difference (log2), PP1 vs untreated [1, 5]: -2.199 log2

Substance: STOM
- Difference (log2), untreated vs GFP (GFP-14-3-3β; [12]): -0.5691 log2
- Difference (log2), PP1 vs untreated [1, 13]: 0.02924 log2

Substance: NAV1
- Difference (log2), untreated vs GFP (GFP-14-3-3β; [12]): 1.95 log2
- Difference (log2), PP1 vs untreated [1, 13]: -0.101 log2

Substance: PRRC2A
- Difference (log2), untreated vs GFP (GFP-14-3-3β; [8]): 0.07605 log2
- Difference (log2), PP1 vs untreated [1, 9]: 0.5007 log2

Substance: DHX9
- Difference (log2), untreated vs GFP (GFP-14-3-3β; [14]): 1.512 log2
- Difference (log2), PP1 vs untreated [1, 15]: -0.3598 log2

Substance: HDAC2
- Difference (log2), untreated vs GFP (GFP-14-3-3β; [12]): 0.5775 log2
- Difference (log2), PP1 vs untreated [1, 13]: 0.1471 log2

Substance: CD44
- Difference (log2), untreated vs GFP (GFP-14-3-3β; [4]): 0.8931 log2
- Difference (log2), PP1 vs untreated [1, 5]: -2.392 log2

Substance: MARK1
- Difference (log2), untreated vs GFP (GFP-14-3-3β; [4]): 5.5786 log2
- Difference (log2), PP1 vs untreated [1, 5]: -2.037 log2

Substance: DNMBP
- Difference (log2), untreated vs GFP (GFP-14-3-3β; [4]): 3.515 log2
- Difference (log2), PP1 vs untreated [1, 5]: -4.455 log2

Substance: SQSTM1
- Difference (log2), untreated vs GFP (GFP-14-3-3β; [14]): 0.1051 log2
- Difference (log2), PP1 vs untreated [1, 15]: -0.4375 log2

Substance: MSH6
- Difference (log2), untreated vs GFP (GFP-14-3-3β; [12]): 1.062 log2
- Difference (log2), PP1 vs untreated [1, 13]: 0.0512 log2

Substance: PPIA
- Difference (log2), untreated vs GFP (GFP-14-3-3β; [10]): -0.5989 log2
- Difference (log2), PP1 vs untreated [1, 11]: -2.011 log2
